Test results from patent US11866430B2, “Naphthyridinone compounds useful as T cell activators” (priority 2018, dated 2024).
Where two headings read alike, the source gives them in different places.

Experiments:
[1] = molecular target: human DGKα (Homo sapiens (Human), UniProt P23743); test: DGKα LIPGLO assay (extruded liposome substrate); type: biochemical
In short: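 Human full-length DGKα, His-tagged and produced in Sf9 cells, assayed at 20 nM (4× stock) on extruded liposomes of PS, 0.25 mM DAG and 2.75 mM PC, preincubated 10 min. Reaction started with 300 μM ATP (stock) and ran 1 h in MOPS pH 7.5/MgCl2/CaCl2/DTT buffer.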

[2] = molecular target: human DGKζ (Homo sapiens (Human), UniProt Q13574); test: DGKζ assay (detergent/lipid micelle substrate); type: biochemical
human DGKζ, sequence (Q13574 other isoform, or with tags, fused parts or gaps): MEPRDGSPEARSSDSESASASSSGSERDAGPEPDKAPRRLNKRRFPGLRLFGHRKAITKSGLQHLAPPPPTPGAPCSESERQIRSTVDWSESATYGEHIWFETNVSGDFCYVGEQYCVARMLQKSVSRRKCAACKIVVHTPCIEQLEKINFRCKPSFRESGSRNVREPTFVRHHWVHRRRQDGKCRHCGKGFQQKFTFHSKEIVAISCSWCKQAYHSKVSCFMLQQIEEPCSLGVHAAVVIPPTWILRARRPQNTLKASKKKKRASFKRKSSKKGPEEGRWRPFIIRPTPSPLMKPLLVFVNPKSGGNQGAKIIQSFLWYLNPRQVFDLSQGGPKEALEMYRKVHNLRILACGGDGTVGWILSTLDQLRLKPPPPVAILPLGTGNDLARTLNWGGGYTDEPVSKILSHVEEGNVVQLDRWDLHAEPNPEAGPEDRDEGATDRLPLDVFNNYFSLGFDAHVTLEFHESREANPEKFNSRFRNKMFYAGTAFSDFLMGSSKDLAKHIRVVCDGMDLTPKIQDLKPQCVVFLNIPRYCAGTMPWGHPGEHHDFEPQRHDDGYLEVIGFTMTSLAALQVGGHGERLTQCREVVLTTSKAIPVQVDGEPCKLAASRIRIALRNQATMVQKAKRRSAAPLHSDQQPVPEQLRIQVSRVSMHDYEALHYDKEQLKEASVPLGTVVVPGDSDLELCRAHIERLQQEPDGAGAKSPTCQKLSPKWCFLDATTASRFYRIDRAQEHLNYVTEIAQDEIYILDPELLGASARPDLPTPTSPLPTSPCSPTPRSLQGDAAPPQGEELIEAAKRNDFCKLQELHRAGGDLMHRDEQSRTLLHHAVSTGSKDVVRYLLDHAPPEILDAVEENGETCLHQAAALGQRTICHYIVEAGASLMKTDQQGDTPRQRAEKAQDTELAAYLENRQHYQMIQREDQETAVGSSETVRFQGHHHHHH
In short: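 Full-length human DGKζ (and DGKα), C-terminal His-tagged, Sf9-expressed, with phosphatidylserine/DAG micelles in 50 mM octyl glucoside; buffer 50 mM MOPS pH 7.5, 100 mM NaCl, 10 mM MgCl2, 1 μM CaCl2, 1 mM DTT.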

[3] = system: OT-1 antigen-specific CD8+ T cells with MC38 tumor cells; test: Murine Cytotoxic T Lymphocyte Assay (IFN-γ); type: cell-based, mouse
[4] = detergent/lipid micelle substrate, read-out: DGKζ IC50
[5] = Mus musculus, MC-38, read-out: msCTL INF-γ IC50, murine CTL IFN-γ (table title reads INF-γ Whole Blood Normalized Agonist EC50)
[6] = DGKζ IC50, detergent/lipid micelle substrate

human DGKα, sequence (P23743 other isoform, or with tags, fused parts or gaps): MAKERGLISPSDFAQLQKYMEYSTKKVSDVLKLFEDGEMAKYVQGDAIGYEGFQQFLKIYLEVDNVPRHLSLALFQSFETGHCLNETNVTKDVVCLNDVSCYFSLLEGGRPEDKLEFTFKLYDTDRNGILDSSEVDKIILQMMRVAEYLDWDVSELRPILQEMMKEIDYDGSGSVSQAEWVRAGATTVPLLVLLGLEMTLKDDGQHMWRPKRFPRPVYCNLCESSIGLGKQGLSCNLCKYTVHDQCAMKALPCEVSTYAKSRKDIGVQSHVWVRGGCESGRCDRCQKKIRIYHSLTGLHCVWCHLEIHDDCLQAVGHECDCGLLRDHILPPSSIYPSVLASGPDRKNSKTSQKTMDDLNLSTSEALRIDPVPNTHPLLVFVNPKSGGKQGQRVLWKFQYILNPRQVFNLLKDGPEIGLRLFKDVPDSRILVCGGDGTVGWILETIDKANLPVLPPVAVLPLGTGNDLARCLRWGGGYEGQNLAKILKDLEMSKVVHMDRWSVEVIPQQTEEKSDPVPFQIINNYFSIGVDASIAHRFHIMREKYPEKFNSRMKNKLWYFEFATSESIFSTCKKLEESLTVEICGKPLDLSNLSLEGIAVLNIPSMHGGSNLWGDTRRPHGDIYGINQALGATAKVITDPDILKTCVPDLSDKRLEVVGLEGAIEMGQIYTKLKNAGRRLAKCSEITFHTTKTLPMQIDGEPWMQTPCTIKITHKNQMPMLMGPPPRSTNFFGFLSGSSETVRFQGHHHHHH

`Cc1ccc(CN2CCN(c3c(C#N)c(=O)n(C)c4ccc(Cl)nc34)CC2)cc1` [Example 386, 6-chloro-1-methyl-4-{4-[(4-methylphenyl)methyl]piperazin-1-yl}-2-oxo-1,2-dihydro-1,5-naphthyridine-3-carbonitrile] gave an IC50 [1] of 0.26 µM, an IC50 [2, 4] of 190 µM and an IC50 [3, 5] of 0.59 µM.
In the case of `Cc1ccc(CN2CCN(c3c(C#N)c(=O)n(C)c4ccc(Cl)nc34)CC2)c(F)c1` [Example 423, 6-chloro-4-{4-[(2-fluoro-4-methylphenyl)methyl]piperazin-1-yl}-1-methyl-2-oxo-1,2-dihydro-1,5-naphthyridine-3-carbonitrile], the IC50 [1] is reported as 2.2 µM, the IC50 [2, 4] is reported as > 81 µM and the IC50 [3, 5] is reported as 0.7 µM.
`COc1cc(F)ccc1C(c1ccc(F)cc1)N1CCN(c2c(C#N)c(=O)n(C)c3ccc(Br)nc23)CC1` (single isomer, unassigned) [Example 17, 6-bromo-4-{4-[(4-fluoro-2-methoxyphenyl)(4-fluorophenyl)methyl]piperazin-1-yl}-1-methyl-2-oxo-1,2-dihydro-1,5-naphthyridine-3-carbonitrile] showed an IC50 [1] of 3.5 µM, an IC50 [2, 4] of 180 µM and an IC50 [3, 5] of 0.19 µM.
For `C#CCn1c(=O)c([N+](=O)[O-])c(N2CCN(C(c3ccc(F)cc3)C3CC3)CC2)c2nc(C#N)ccc21` (single isomer, unassigned) [Example 143, 8-(4-(cyclopropyl(4-fluorophenyl)methyl)piperazin-1-yl)-7-nitro-6-oxo-5-(prop-2-yn-1-yl)-5,6-dihydro-1,5-naphthyridine-2-carbonitrile], the IC50 [1] was 3.4 µM, the IC50 [2, 4] was 4.2 µM and the IC50 [3, 5] was 1.41 µM.
With `C#CCn1c(=O)c([N+](=O)[O-])c(N2CCN(C(C)c3ccc(F)cc3)CC2)c2nc(C#N)ccc21` (single isomer, unassigned) [Example 136, 8-(4-(1-(4-fluorophenyl)ethyl)piperazin-1-yl)-7-nitro-6-oxo-5-(prop-2-yn-1-yl)-5,6-dihydro-1,5-naphthyridine-2-carbonitrile] the IC50 [1] was 0.79 µM, the IC50 [2, 6] was 0.87 µM and the IC50 ([3]; read-out: msCTL INF-γ IC50, murine CTL IFN-γ (table title reads INF-γ Whole Blood Normalized Agonist EC50)) was 0.09 µM.
Compound `Cc1ccc(CN2CCN(c3c(C#N)c(=O)n(C)c4ccc(Br)nc34)CC2)c(O)c1` [Example 372, 6-bromo-4-{4-[(2-hydroxy-4-methylphenyl)methyl]piperazin-1-yl}-1-methyl-2-oxo-1,2-dihydro-1,5-naphthyridine-3-carbonitrile] has an IC50 [1] of 0.078 µM, an IC50 [2, 4] of 60 µM and an IC50 [3, 5] of 2.55 µM.
Compound `Cn1c(=O)c(C#N)c(N2CCN(Cc3cccc4ccccc34)CC2)c2nc(C#N)ccc21` [Example 404, 5-methyl-8-{4-[(naphthalen-1-yl)methyl]piperazin-1-yl}-6-oxo-5,6-dihydro-1,5-naphthyridine-2,7-dicarbonitrile] has an IC50 [1] of 4.9 µM, an IC50 [2, 4] of 63 µM and an IC50 [3, 5] of 9.84 µM.
In the case of `Cc1cccc(CN2CCN(c3c(C#N)c(=O)n(C)c4ccc(Cl)nc34)CC2)c1O` [Example 391, 6-chloro-4-{4-[(2-hydroxy-3-methylphenyl)methyl]piperazin-1-yl}-1-methyl-2-oxo-1,2-dihydro-1,5-naphthyridine-3-carbonitrile], the IC50 [1] is reported as 1.8 µM, the IC50 [2, 4] is reported as 36 µM and the IC50 [3, 5] is reported as 0.73 µM.
`COc1cc(F)ccc1C(c1ccc(F)cc1)N1CCN(c2c([N+](=O)[O-])c(=O)n(C)c3ccc(C#N)nc23)CC1` (single isomer, unassigned) [Example 124, 8-(4-((4-fluoro-2-methoxyphenyl)(4-fluorophenyl)methyl)piperazin-1-yl)-5-methyl-7-nitro-6-oxo-5,6-dihydro-1,5-naphthyridine-2-carbonitrile] was tested, and the IC50 [1] was 0.75 µM, the IC50 [2, 6] was 0.9 µM and the IC50 [3, 5] was 0.04 µM.
With `COc1ccccc1C(c1ccc(F)cc1)N1CCN(c2c(C#N)c(=O)n(C)c3ccc(Br)nc23)CC1` (single isomer, unassigned) [Example 13, 6-bromo-4-{4-[(4-fluorophenyl)(2-methoxyphenyl)methyl]piperazin-1-yl}-1-methyl-2-oxo-1,2-dihydro-1,5-naphthyridine-3-carbonitrile] the IC50 [1] was 5.4 µM, the IC50 [2, 4] was > 240 µM and the IC50 [3, 5] was 0.64 µM.
